Reference: patent publication US9410148B2, “Method for constructing libraries of non-standard peptide compounds comprising N-methyl amino acids and other special (non-standard) amino acids and method for searching and identifying active species” (THE UNIVERSITY OF TOKYO, priority 2010, dated 2016)
pKd: −log10 of the molar value. Bridge positions count the residues as written; N and C are the ends. Square brackets hold non-standard residues; d marks the D form. Peptide text beside a SMILES is read from it. NMeF = CN[C@@H](Cc1ccccc1)C(=O)O; NMeS = CN[C@@H](CO)C(=O)O; Sar = CNCC(=O)O

Tests used:
E6AP-HECT [1] = biological target: T1, E6AP-HECT (Homo sapiens, UniProt Q05086); assay: Determination of binding constant using SPR (BIACORE T100, streptavidin sensor chip)
T1 construct: The C terminal domain of E6AP, consisting of about 350 amino acid residues, is called the HECT
T1 sequence (Q05086 495-852 isoform Q05086-2 limits assumed): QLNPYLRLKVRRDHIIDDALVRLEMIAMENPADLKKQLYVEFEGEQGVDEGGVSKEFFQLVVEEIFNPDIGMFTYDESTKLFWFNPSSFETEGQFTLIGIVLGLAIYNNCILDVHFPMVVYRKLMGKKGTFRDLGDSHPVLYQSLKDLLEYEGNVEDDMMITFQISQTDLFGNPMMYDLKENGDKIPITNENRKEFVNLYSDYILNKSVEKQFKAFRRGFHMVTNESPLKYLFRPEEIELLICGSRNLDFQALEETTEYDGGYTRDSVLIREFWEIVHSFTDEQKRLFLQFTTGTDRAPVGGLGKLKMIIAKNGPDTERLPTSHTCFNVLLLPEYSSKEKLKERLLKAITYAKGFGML
Description: The binding constant of MCP11 to E6AP-HECT was analyzed by a surface plasmon resonance using BIACORE T100.
A streptavidin sensor chip (SA chip certified) was used as a sensor chip, an Avi-His-GB1-E6AP-HECT was used as a ligand, and MCP11 was used as an analyte. After E6AP-HECT was fixed to a sensor chip, the KD of MCP11 was 0.5 nM.

E6AP-HECT [2] = biological target: T2, E6AP-HECT (Homo sapiens, UniProt Q05086); assay: KD / nM
T2 construct: The C terminal domain of E6AP, consisting of about 350 amino acid residues, is called the HECT
Excerpt: Table printed on a drawing sheet, Figure 5-4
Head of the field: KD / nM
Biotinylated E6AP-HECT was fixed to the streptavidin chip to analyze affinity using the peptides. (Example 7)
First copying reader's note: Brackets drawn under MCP11 and CP11 link the N-terminal CH2CO to the second Cys (cyclic peptides); the raised Me marks and underlining denote N-methyl residues.
Where the first naming reader finds the target: description_of_the_figure: Biotinylated E6AP-HECT was fixed to the streptavidin chip to analyze affinity using the peptides.
T2 sequence (Q05086 whole entry, looked up, the tested form may be a part): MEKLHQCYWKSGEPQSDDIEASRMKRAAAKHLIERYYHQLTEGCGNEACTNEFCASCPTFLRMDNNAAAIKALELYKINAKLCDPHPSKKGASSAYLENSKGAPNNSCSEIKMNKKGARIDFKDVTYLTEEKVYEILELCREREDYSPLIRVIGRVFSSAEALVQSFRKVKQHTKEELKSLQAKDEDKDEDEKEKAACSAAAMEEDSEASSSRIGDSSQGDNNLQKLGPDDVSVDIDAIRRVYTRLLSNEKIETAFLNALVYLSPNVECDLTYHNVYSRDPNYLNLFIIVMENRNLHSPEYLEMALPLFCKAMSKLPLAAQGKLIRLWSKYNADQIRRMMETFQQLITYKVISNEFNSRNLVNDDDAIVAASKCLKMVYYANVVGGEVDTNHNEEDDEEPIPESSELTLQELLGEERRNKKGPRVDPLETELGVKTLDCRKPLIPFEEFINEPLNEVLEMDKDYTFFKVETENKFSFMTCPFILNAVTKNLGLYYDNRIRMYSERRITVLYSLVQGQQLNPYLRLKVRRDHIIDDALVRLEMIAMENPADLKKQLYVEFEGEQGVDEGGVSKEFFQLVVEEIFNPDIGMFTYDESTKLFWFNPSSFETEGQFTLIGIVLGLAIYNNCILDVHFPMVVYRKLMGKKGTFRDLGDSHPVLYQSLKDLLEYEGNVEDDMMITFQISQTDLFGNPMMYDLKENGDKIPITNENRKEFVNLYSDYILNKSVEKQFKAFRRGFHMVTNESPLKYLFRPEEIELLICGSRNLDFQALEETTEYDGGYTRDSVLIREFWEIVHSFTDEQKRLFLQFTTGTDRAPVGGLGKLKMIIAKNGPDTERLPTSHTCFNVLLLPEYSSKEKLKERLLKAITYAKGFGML

SMILES: CC(C)[C@@H]1NC(=O)[C@H](CC(=O)O)NC(=O)[C@H](CS)NC(=O)[C@@H](Cc2c[nH]c3ccccc23)NC(=O)CSC[C@@H](C(=O)NCC(N)=O)NC(=O)[C@@H]2CCCN2C(=O)[C@H](Cc2ccccc2)N(C)C(=O)[C@H](Cc2ccc(O)cc2)NC(=O)CN(C)C(=O)[C@H](Cc2ccccc2)N(C)C(=O)[C@H](CCCNC(=N)N)NC(=O)CNC(=O)[C@H](CO)N(C)C1=O [MCP11, Cyclo(-Ac-^DWCDV^MeSGR^MeF^MeGY^MeFPC)G-OH] ({CH2CO}-[dW]CDV[NMeS]GR[NMeF][Sar]Y[NMeF]PCG-NH2; thioether N-13)
- pKd (E6AP-HECT [1]; surface plasmon resonance, Avi-His-GB1-E6AP-HECT fixed as ligand, peptide as analyte): 9.30

SMILES: CC(=O)N[C@H](Cc1c[nH]c2ccccc12)C(=O)N[C@@H](CS)C(=O)N[C@@H](CC(=O)O)C(=O)N[C@H](C(=O)N(C)[C@@H](CO)C(=O)NCC(=O)N[C@@H](CCCNC(=N)N)C(=O)N(C)[C@@H](Cc1ccccc1)C(=O)N(C)CC(=O)N[C@@H](Cc1ccc(O)cc1)C(=O)N(C)[C@@H](Cc1ccccc1)C(=O)N1CCC[C@H]1C(=O)N[C@@H](CS)C(=O)NCC(N)=O)C(C)C [MLP11:, CH3CO-wCDV^MeSGR^MeF^MeGY^MeFPCG-NH2] (Ac-[dW]CDV[NMeS]GR[NMeF][Sar]Y[NMeF]PCG-NH2)
- pKd (E6AP-HECT [2]): 6.00 to 7.00

SMILES: CC(=O)N[C@H](Cc1c[nH]c2ccccc12)C(=O)N[C@@H](CS)C(=O)N[C@@H](CC(=O)O)C(=O)N[C@H](C(=O)N(C)[C@@H](CO)C(=O)NCC(=O)N[C@@H](CCCNC(=N)N)C(=O)N(C)[C@@H](Cc1ccccc1)C(=O)N(C)CC(=O)N[C@@H](Cc1ccc(O)cc1)C(=O)N(C)[C@@H](Cc1ccccc1)C(=O)N1CCC[C@H]1C(=O)N[C@@H](CS)C(=O)NCC(N)=O)C(C)C [MLP11] (Ac-[dW]CDV[NMeS]GR[NMeF][Sar]Y[NMeF]PCG-NH2)
- difference in the binding ability (E6AP-HECT [1]; KD of MLP11 relative to MCP11): ≥ 200 times
